Laboratory results taken from patent EP0563814A2, “Carbonic acid esters of 2-amino-7-(1,3-dihydroxy-2-propoxymethyl)purines, their preparation and their use as antiviral agents” (HOECHST AKTIENGESELLSCHAFT, priority 1992, dated 1993).
Where two headings read alike, the source gives them in different places.

Assays:
[1] = Oral bioavailability in the mouse; format: in vivo, Maus; settings: for AUC(0-inf): analyte Formel 1', read-out: AUD (0-->oo) (converted)
Text: Folgende Bioverfügbarkeiten der Verbindungen der Formel 1' wurden bei Mäusen nach oraler Gabe der erfindungsgemäßen Verbindungen ermittelt: […]

[2] = test system: Herpes simplex 1 Virus (HSV-1); assay: Activity against systemic HSV-1 infection in the NMRI mouse, oral treatment; format: in vivo, NMRI-Mäuse; settings: i.p. infection, observation two weeks
Text: Wirkung gegen systemische Herpes simplex 1 Virus (HSV-1) Infektion: NMRI-Mäuse, spezifisch pathogenfrei, im Gewicht von 15-18 g wurden intraperitoneal mit HSV-1 infiziert und anschließend mit den erfindungsgemäßen Verbindungen oral therapiert. Die Behandlung erfolgte erstmals 3 Stunden nach der Infektion und wurde zweimal täglich über 4 Tage fortgesetzt. Der Behandlungserfolg wurde anhand des Krankheitsverlaufes und der Überlebensrate gegenüber der unbehandelten Infektionskontrolle bestimmt. Letztere erhielt anstelle der erfindungsgemäßen Verbindungen physiologische Kochsalzlösung appliziert. Die Beobachtungszeit betrug zwei Wochen. Tabelle 1 zeigt die Ergebnisse dieser Untersuchung. Tabelle 1

| SMILES | Bioverfügbarkeit ([1]; i.v., 25 mg/kg, availability of Formel 1') | AUC(0-inf) ([1]; in vivo, iv, 25 mg/kg) | AUC(0-inf) ([1]; in vivo, po, 100 mg/kg) | bioavailability ([1]; in vivo, po, 100 mg/kg, availability of Formel 1', read-out: Bioverfügbarkeit) | mittlere Überlebenszeit (Tage) ([2]; 9 x 10 µmol/kg) | Überlebende/ Gruppengröße ([2]; 9 x 10 µmol/kg) | mittlere Überlebenszeit (Tage) ([2]; 9 x 30 µmol/kg) | Überlebende/ Gruppengröße ([2]; 9 x 30 µmol/kg) | Überlebende/ Gruppengröße ([2]; 9 x 100 µmol/kg) | mittlere Überlebenszeit (Tage) ([2]; 9 x 100 µmol/kg) |
| --- | --- | --- | --- | --- | --- | --- | --- | --- | --- | --- |
| Nc1ncc2c(ncn2COC(CO)CO)n1 [Formel 1', 2-Amino-7-[(1,3-dihydroxy-2-propoxy)methyl]purin, reference compound] | 100% | 0.223 µg·h/mL | 0.154 µg·h/mL | 17.2% | 10.5 ± 0.7 Tage | 3/5 | 9.5 ± 1.3 Tage | 1/5 | 5/5 | – |
| CCC(=O)OCC(COC(=O)CC)OCn1cnc2nc(N)ncc21 [Beispiel 3, 2-Amino-7-[(1,3-bis-propionyloxy-2-propoxy)methyl]purin] | – | – | – | – | – | – | – | 5/5 | 5/5 | – |
| CCCC(=O)OCC(COC(=O)CCC)OCn1cnc2nc(N)ncc21 [Beispiel 2, 2-Amino-7-[(1,3-bis-butyryloxy-2-propoxy)methyl]purin] | – | – | – | – | – | – | – | 5/5 | 5/5 | – |
| CC(=O)OCC(COC(C)=O)OCn1cnc2nc(N)ncc21 [Beispiel 1, 2-Amino-7-[(1,3-bis-acetoxy-2-propoxy)methyl]purin] | – | – | – | – | > 14 Tage | 5/5 | > 14 Tage | 5/5 | 5/5 | > 14 Tage |
